{"source": "patent US20190125790A1", "about": "“USE OF HYPOCHLOROUS ACID AS A TOPICAL ANTIMICROBIAL” (BIIOSMART TECHNOLOGIES LLC, priority 2016, published 2019)", "assay": "Controlled randomized single blind clinical trial in surgical open wounds", "format": "in vivo, human", "experimental": "The biocompatibility of the 0.046% HOCl concentration aqueous solution was tested in a three way controlled and randomized single blind clinical trial. Patients were randomized into three groups (60 patients per group). The antiseptic efficacy and biocompatibility of the test solution vs. povidone-iodine vs. chlorhexidine (Chlorhexidine Gluconate—CHG) in surgical—clean and clean contaminated—open wounds was evaluated in 180 patients admitted to the surgical facilities of Erasmo Meoz Hospital in Cucuta, Colombia."}
{"smiles": "[H]/N=C(\\N/C(=N/[H])NCCCCCCNC(=N)NC(=N)Nc1ccc(Cl)cc1)Nc1ccc(Cl)cc1", "note": "[chlorhexidine, Chlorhexidine Gluconate]", "values": [{"measurement": "infected patients", "setting": "after five days follow-up, 60 patients per group", "value": "two"}, {"measurement": "wound appearance (biocompatibility)", "setting": "human, in vivo", "value": "dried edges and no promising color in wound bed"}]}
